Marks after values point to notes of the source that are not given here.
Experiments:
HeLa S3 = experiment: Proliferation inhibiting action in nude mice bearing human tumor cells; type: in vivo, human tumor cells in nude mice (BALB/c); conditions: test sample 100 μg/mouse i.v., 5-FU 25 mg/kg i.p., twice a week for four weeks
Method: (§1) Each 2.5×10^6 of cell strain HeLa S3 derived from human uterus neck and cell strain Hep-2 derived from throat cancer cells were transplanted under the skin of the nude abdomen of male nude mice 5 weeks old derived from BALB/c and, on the 7th to 10th day after the transplantation, living cohesion of tumor was confirmed. Then 100 μg/mouse of test sample (intravenously) and 25 mg/kg of 5-FU (intraperitoneally) were administered twice a week for four weeks. Tumor was extracted on the fourth week after the admininstration and the weight were measured.
(§2) The test samples used were the same as that in the above (1).

Hep-2 = experiment: as above; type: in vivo, human tumor cells in nude mice (BALB/c); conditions: test sample 100 μg/mouse i.v., 5-FU 25 mg/kg i.p., twice a week for four weeks
Method: as §1, §2

[1] = 50% melting temperature (Tm) and hyperchromicity, UV absorbance at 260 nm; type: physicochemical; conditions: neutral condition, aqueous buffer solution containing 0.1M sodium ion
Method: If the stabilization of the double stranded complex formation in nucleic acid polymer is shown with reference to the 50% melting temperature (Tm value), poly I:poly C has a 59.0° C. under a neutral condition in aqueous buffer solution containing 0.1M sodium ion while the SH-substituted nucleic acid derivative containing 4-thiouridine (n=20) and the S-substituted nucleic acid derivative (n=20) have a 59.5° C. and 59.3° C., respectively.
Among the nucleic acid derivatives obtained by the above example, those with 50 to 2,000 residue numbers of molecular size distribution were taken and their fusing curves were measured.
Sample I or II (0.7 OD/ml) in 10 mM Tris buffer (pH 7.5) containing 0.1M sodium chloride was warmed, at the rising rate of 2° C./4 minutes, from 20° C. to 90° C., the ultraviolet absorbancy at each temperature was measured at the wavelength of 260 nm, and an increase of ultraviolet absorbancy by a hyperchromicity was represented by a relative ratio giving the state at 20° C. as a base. A Beckmann-DU-8B spectrophotometer was used for the measurement. Melting of the nucleic acid derivatives was gradually observed during 35° C. to 55° C. and, at around 59° C., a sudden fusion curve was obtained. […]

Pyrogen test to rabbits = type: in vivo; conditions: 0.2 microgram/kg i.v., 4 hours after injection
Method: Injection of poly I:poly C in vivo has been known to be pyrogenic. […] On the contrary, the nucleic acid derivatives of the present invention (both SH and S--S substances in the above cytotoxic experiment) show only 0.25° C. rise in body temperature on average and the result of the pyrogenic test was negative. In those experiments, three rabbits per group were used and a solution of the sample (0.2 microgram/kg) in 10 ml of physiological saline solution was intravenously injected beneath the ear of the rabbits and the body temperature at 4 hours after the injection was observed.

venom phosphodiesterase = experiment: Resistance against hydrolysis, time until hydrolysis arrives at 50%; type: in vitro ADME; conditions: venom phosphodiesterase enzymatic reaction
Method: Then the resistance against hydrolysis by RNase was compared in terms of the time ratio until the hydrolysis arrives at 50%. Thus, under conditions such as venom phosphodiesterase enzymatic reaction, poly I:poly C was 50 minutes while those of nucleic acid derivatives containing 4-thiouridine (SH group) and its S--S bond (n=20) are 60 minutes and, by contrast, those of nucleic acid derivatives (n=20) containing uridine (OH group) were as short as 20 minutes.

[2] = system: interleukin 1 (cohesive cells from human peripheral blood); experiment: Inducing activity of interleukin 1, 3H-thymidine in-take into PHA-stimulated mice thymus cells; type: cell-based; conditions: samples 100α/ml; interleukin 1 1.25 units/ml; saline control 3370
Method: Mononuclear particles were separated from normal human heparin-added peripheral blood by specific gravity centrifugation method using Ficoll-Hypaque (Pharmacia, Ficollpaque, trademark), the numbers were adjusted to 5×10^6 /ml in a 10% FCS-added RPMI medium, placed in a plastic dish, incubated at 37° C. for one hour, and the cohesive cells were used as an interleukin 1-producing source.
The sample to be tested was added to the 5×10^5 /ml of single particle, incubated at 37° C. for 24 hours, and the interleukin 1 activity in the supernatant liquid was determined by measuring a ^3 H-thymidine in-take method into a PHA-stimulated mice thymus cells using a proliferation ability of the thymus cells as a target. The control was physiological saline solution.

Compound: O=c1[nH]cc(F)c(=O)[nH]1 [5-FU, 5-fluorouracil]
- Inhibition Rate (%) (HeLa S3): 47%
- Weight (g) ± S.E. of tumor (HeLa S3; control 3.85 ± 0.23): 2.06 ± 0.35 g
- Inhibition Rate (%) (Hep-2): 30%
- Weight (g) ± S.E. of tumor (Hep-2; control 0.88 ± 0.07): 0.56 ± 0.12 g

Compound: polyinosinic acid-polycitydylic acid [poly I:poly C]
- 50% melting temperature (Tm value) [1]: 59.0 °C
- body temperature rise, average (Pyrogen test to rabbits): 1.45 °C
- time until the hydrolysis arrives at 50% (venom phosphodiesterase): 50 min

Compound: Interleukin 1
- In-Take Amount [2]: 12517 DPM (× 10^4)

From patent US5298614A, “Size limited double stranded poly I poly(cytidylate/4-thiouridylate)” (Nippon Shinyaku Co. Ltd., priority 1986, dated 1994)
